Laboratory results published in PubChem BioAssay (NCI).
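Exposure lasted 48 hours, with cells grown in 96-well plates and compounds tested at five concentrations. TGI denotes the concentration required for complete inhibition of growth.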

What was measured:
Experiment in all cases: inhibition of tumour cell growth, NCI panel, 48 h
786-0 renal = system: 786-0 renal
A498 renal = system: A498 renal
A549 NSCLC = system: A549 NSCLC
CAKI-1 renal = system: CAKI-1 renal
CCRF-CEM leukemia = system: CCRF-CEM leukemia
COLO 205 colon = system: COLO 205 colon
DLD-1 colon = system: DLD-1 colon
DMS 114 small cell lung = system: DMS 114 small cell lung
DMS 273 small cell lung = system: DMS 273 small cell lung
EKVX NSCLC = system: EKVX NSCLC
HCC-2998 colon = system: HCC-2998 colon
HCT-116 colon = system: HCT-116 colon
HCT-15 colon = system: HCT-15 colon
HL-60(TB) leukemia = system: HL-60(TB) leukemia
HOP-18 NSCLC = system: HOP-18 NSCLC
HOP-62 NSCLC = system: HOP-62 NSCLC
HOP-92 NSCLC = system: HOP-92 NSCLC
HT29 colon = system: HT29 colon
IGROV1 ovarian = system: IGROV1 ovarian
K-562 leukemia = system: K-562 leukemia
KM12 colon = system: KM12 colon
KM20L2 colon = system: KM20L2 colon
LOX IMVI melanoma = system: LOX IMVI melanoma
LXFL 529 NSCLC = system: LXFL 529 NSCLC
M14 melanoma = system: M14 melanoma
M19-MEL melanoma = system: M19-MEL melanoma
MALME-3M melanoma = system: MALME-3M melanoma
MOLT-4 leukemia = system: MOLT-4 leukemia
NCI-H226 lung = system: NCI-H226 lung
NCI-H23 lung = system: NCI-H23 lung
NCI-H460 lung = system: NCI-H460 lung
NCI-H522 lung = system: NCI-H522 lung
OVCAR-3 ovarian = system: OVCAR-3 ovarian
OVCAR-4 ovarian = system: OVCAR-4 ovarian
OVCAR-5 ovarian = system: OVCAR-5 ovarian
OVCAR-8 ovarian = system: OVCAR-8 ovarian
RPMI-8226 leukemia = system: RPMI-8226 leukemia
RXF 393 renal = system: RXF 393 renal
RXF-631 renal = system: RXF-631 renal
SF-268 CNS = system: SF-268 CNS
SF-295 CNS = system: SF-295 CNS
SF-539 CNS = system: SF-539 CNS
SK-MEL-2 melanoma = system: SK-MEL-2 melanoma
SK-MEL-5 melanoma = system: SK-MEL-5 melanoma
SK-OV-3 ovarian = system: SK-OV-3 ovarian
SN12C renal = system: SN12C renal
SNB-19 CNS = system: SNB-19 CNS
SNB-75 CNS = system: SNB-75 CNS
SNB-78 CNS = system: SNB-78 CNS
SW-620 colon = system: SW-620 colon
TK-10 renal = system: TK-10 renal
U251 CNS = system: U251 CNS
UACC-257 melanoma = system: UACC-257 melanoma
UACC-62 melanoma = system: UACC-62 melanoma
UO-31 renal = system: UO-31 renal
XF 498 CNS = system: XF 498 CNS
ACHN renal = system: ACHN renal
SK-MEL-28 melanoma = system: SK-MEL-28 melanoma
SR leukemia = system: SR leukemia

Structure (SMILES): COC(=O)CCC1=NOC(CC2CC(CCC(=O)OC)=NO2)C1 (stereo not given)
- TGI (786-0 renal): > 100 µM
- TGI (A498 renal): > 100 µM
- TGI (A549 NSCLC): > 100 µM
- TGI (CAKI-1 renal): > 100 µM
- TGI (CCRF-CEM leukemia): > 100 µM
- TGI (COLO 205 colon): > 100 µM
- TGI (DLD-1 colon): > 100 µM
- TGI (DMS 114 small cell lung): > 100 µM
- TGI (DMS 273 small cell lung): > 100 µM
- TGI (EKVX NSCLC): > 100 µM
- TGI (HCC-2998 colon): > 100 µM
- TGI (HCT-116 colon): > 100 µM
- TGI (HCT-15 colon): > 100 µM
- TGI (HL-60(TB) leukemia): > 100 µM
- TGI (HOP-18 NSCLC): > 100 µM
- TGI (HOP-62 NSCLC): > 100 µM
- TGI (HOP-92 NSCLC): > 100 µM
- TGI (HT29 colon): > 100 µM
- TGI (IGROV1 ovarian): > 100 µM
- TGI (K-562 leukemia): > 100 µM
- TGI (KM12 colon): > 100 µM
- TGI (KM20L2 colon): > 100 µM
- TGI (LOX IMVI melanoma): > 100 µM
- TGI (LXFL 529 NSCLC): > 100 µM
- TGI (M14 melanoma): > 100 µM
- TGI (M19-MEL melanoma): > 100 µM
- TGI (MALME-3M melanoma): > 100 µM
- TGI (MOLT-4 leukemia): > 100 µM
- TGI (NCI-H226 lung): > 100 µM
- TGI (NCI-H23 lung): > 100 µM
- TGI (NCI-H460 lung): > 100 µM
- TGI (NCI-H522 lung): > 100 µM
- TGI (OVCAR-3 ovarian): > 100 µM
- TGI (OVCAR-4 ovarian): > 100 µM
- TGI (OVCAR-5 ovarian): > 100 µM
- TGI (OVCAR-8 ovarian): > 100 µM
- TGI (RPMI-8226 leukemia): > 100 µM
- TGI (RXF 393 renal): > 100 µM
- TGI (RXF-631 renal): > 100 µM
- TGI (SF-268 CNS): > 100 µM
- TGI (SF-295 CNS): > 100 µM
- TGI (SF-539 CNS): > 100 µM
- TGI (SK-MEL-2 melanoma): > 100 µM
- TGI (SK-MEL-5 melanoma): > 100 µM
- TGI (SK-OV-3 ovarian): > 100 µM
- TGI (SN12C renal): > 100 µM
- TGI (SNB-19 CNS): > 100 µM
- TGI (SNB-75 CNS): > 100 µM
- TGI (SNB-78 CNS): > 100 µM
- TGI (SW-620 colon): > 100 µM
- TGI (TK-10 renal): > 100 µM
- TGI (U251 CNS): > 100 µM
- TGI (UACC-257 melanoma): > 100 µM
- TGI (UACC-62 melanoma): > 100 µM
- TGI (UO-31 renal): > 100 µM
- TGI (XF 498 CNS): > 100 µM

Structure (SMILES): Cc1c(NC(=O)/C(=N/NC(=S)N=N)C2C(=O)CC(C)(C)CC2=O)c(O)c2ccccc2c1O
- TGI (786-0 renal): 27.2 µM
- TGI (A498 renal): 35.7 µM
- TGI (A549 NSCLC): 21.7 µM
- TGI (ACHN renal): 26.8 µM
- TGI (CAKI-1 renal): 37.6 µM
- TGI (CCRF-CEM leukemia): 21.1 µM
- TGI (COLO 205 colon): 25.5 µM
- TGI (DLD-1 colon): 20.7 µM
- TGI (DMS 114 small cell lung): 4.17 µM
- TGI (DMS 273 small cell lung): 22.4 µM
- TGI (EKVX NSCLC): 32.2 µM
- TGI (HCC-2998 colon): 23.3 µM
- TGI (HCT-116 colon): 13.7 µM
- TGI (HCT-15 colon): 18.8 µM
- TGI (HL-60(TB) leukemia): 22.7 µM
- TGI (HOP-18 NSCLC): 30.4 µM
- TGI (HOP-62 NSCLC): 36 µM
- TGI (HT29 colon): 33.6 µM
- TGI (IGROV1 ovarian): 19.8 µM
- TGI (K-562 leukemia): 62.8 µM
- TGI (KM12 colon): 22.1 µM
- TGI (KM20L2 colon): 40.4 µM
- TGI (LOX IMVI melanoma): 12 µM
- TGI (LXFL 529 NSCLC): 23.7 µM
- TGI (M14 melanoma): 18.5 µM
- TGI (M19-MEL melanoma): 2.95 µM
- TGI (MALME-3M melanoma): 29.6 µM
- TGI (MOLT-4 leukemia): 15.7 µM
- TGI (NCI-H226 lung): 27.7 µM
- TGI (NCI-H23 lung): 11.9 µM
- TGI (NCI-H460 lung): 64.9 µM
- TGI (NCI-H522 lung): 8.39 µM
- TGI (OVCAR-3 ovarian): 6.5 µM
- TGI (OVCAR-4 ovarian): 27 µM
- TGI (OVCAR-5 ovarian): 36.9 µM
- TGI (OVCAR-8 ovarian): 17.6 µM
- TGI (RPMI-8226 leukemia): 56.7 µM
- TGI (RXF 393 renal): 33.2 µM
- TGI (RXF-631 renal): 31.7 µM
- TGI (SF-268 CNS): 21.7 µM
- TGI (SF-295 CNS): 27.6 µM
- TGI (SF-539 CNS): 12.4 µM
- TGI (SK-MEL-2 melanoma): 26.1 µM
- TGI (SK-MEL-28 melanoma): 26.4 µM
- TGI (SK-MEL-5 melanoma): 11.3 µM
- TGI (SK-OV-3 ovarian): 36.9 µM
- TGI (SN12C renal): 20.1 µM
- TGI (SNB-19 CNS): 26.5 µM
- TGI (SNB-75 CNS): 45.6 µM
- TGI (SNB-78 CNS): 58.8 µM
- TGI (SR leukemia): 14.9 µM
- TGI (SW-620 colon): 22.3 µM
- TGI (TK-10 renal): 35.6 µM
- TGI (U251 CNS): 14 µM
- TGI (UACC-257 melanoma): 14 µM
- TGI (UACC-62 melanoma): 6 µM
- TGI (UO-31 renal): 25.4 µM
- TGI (XF 498 CNS): 28.9 µM

Structure (SMILES): CN(C)c1[se]nc2c1c(=O)n(C)c(=O)n2C
- TGI (786-0 renal): > 100 µM
- TGI (A498 renal): > 100 µM
- TGI (A549 NSCLC): > 100 µM
- TGI (ACHN renal): > 100 µM
- TGI (CAKI-1 renal): > 100 µM
- TGI (CCRF-CEM leukemia): > 100 µM
- TGI (COLO 205 colon): > 100 µM
- TGI (DLD-1 colon): > 100 µM
- TGI (DMS 114 small cell lung): > 100 µM
- TGI (DMS 273 small cell lung): > 100 µM
- TGI (EKVX NSCLC): > 100 µM
- TGI (HCC-2998 colon): > 100 µM
- TGI (HCT-116 colon): > 100 µM
- TGI (HCT-15 colon): > 100 µM
- TGI (HL-60(TB) leukemia): > 100 µM
- TGI (HOP-18 NSCLC): > 100 µM
- TGI (HOP-62 NSCLC): > 100 µM
- TGI (HOP-92 NSCLC): > 100 µM
- TGI (HT29 colon): > 100 µM
- TGI (IGROV1 ovarian): > 100 µM
- TGI (K-562 leukemia): > 100 µM
- TGI (KM12 colon): > 100 µM
- TGI (KM20L2 colon): > 100 µM
- TGI (LOX IMVI melanoma): > 100 µM
- TGI (LXFL 529 NSCLC): > 100 µM
- TGI (M19-MEL melanoma): > 100 µM
- TGI (MALME-3M melanoma): > 100 µM
- TGI (MOLT-4 leukemia): > 100 µM
- TGI (NCI-H226 lung): > 100 µM
- TGI (NCI-H23 lung): > 100 µM
- TGI (NCI-H460 lung): > 100 µM
- TGI (NCI-H522 lung): > 100 µM
- TGI (OVCAR-3 ovarian): > 100 µM
- TGI (OVCAR-4 ovarian): > 100 µM
- TGI (OVCAR-5 ovarian): > 100 µM
- TGI (OVCAR-8 ovarian): > 100 µM
- TGI (RPMI-8226 leukemia): > 100 µM
- TGI (RXF-631 renal): > 100 µM
- TGI (SF-268 CNS): > 100 µM
- TGI (SF-295 CNS): > 100 µM
- TGI (SF-539 CNS): > 100 µM
- TGI (SK-MEL-2 melanoma): > 100 µM
- TGI (SK-MEL-28 melanoma): > 100 µM
- TGI (SK-MEL-5 melanoma): > 100 µM
- TGI (SK-OV-3 ovarian): > 100 µM
- TGI (SN12C renal): > 100 µM
- TGI (SNB-19 CNS): > 100 µM
- TGI (SNB-75 CNS): > 100 µM
- TGI (SNB-78 CNS): > 100 µM
- TGI (SW-620 colon): > 100 µM
- TGI (TK-10 renal): > 100 µM
- TGI (U251 CNS): > 100 µM
- TGI (UACC-257 melanoma): > 100 µM
- TGI (UACC-62 melanoma): > 100 µM
- TGI (UO-31 renal): > 100 µM
- TGI (XF 498 CNS): > 100 µM
